Assay results from PubChem BioAssay AID588613 (The Scripps Research Institute Molecular Screening Center, 2011).
Calls of active or inactive are those of the source.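 The calls were made as follows: active = phosphorylated EGFR protein level at least 30% below or above the solvent-only control; inactive = the rest.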

Target: Epidermal growth factor receptor (Homo sapiens) (UniProt P00533)
Assay: p-EGFR protein level shift in DLD1 cells – cell-based, chemiluminescent western blot, powder samples, counter-screen for KLF5 inhibitor project, late-stage follow-up (AID 588613)
Conditions: DLD-1 cells, phospho-EGFR western blot, 24 h; at 10 µM; stronger effect = higher value

Chain of Epidermal growth factor receptor (Homo sapiens) (P00533 whole entry, looked up): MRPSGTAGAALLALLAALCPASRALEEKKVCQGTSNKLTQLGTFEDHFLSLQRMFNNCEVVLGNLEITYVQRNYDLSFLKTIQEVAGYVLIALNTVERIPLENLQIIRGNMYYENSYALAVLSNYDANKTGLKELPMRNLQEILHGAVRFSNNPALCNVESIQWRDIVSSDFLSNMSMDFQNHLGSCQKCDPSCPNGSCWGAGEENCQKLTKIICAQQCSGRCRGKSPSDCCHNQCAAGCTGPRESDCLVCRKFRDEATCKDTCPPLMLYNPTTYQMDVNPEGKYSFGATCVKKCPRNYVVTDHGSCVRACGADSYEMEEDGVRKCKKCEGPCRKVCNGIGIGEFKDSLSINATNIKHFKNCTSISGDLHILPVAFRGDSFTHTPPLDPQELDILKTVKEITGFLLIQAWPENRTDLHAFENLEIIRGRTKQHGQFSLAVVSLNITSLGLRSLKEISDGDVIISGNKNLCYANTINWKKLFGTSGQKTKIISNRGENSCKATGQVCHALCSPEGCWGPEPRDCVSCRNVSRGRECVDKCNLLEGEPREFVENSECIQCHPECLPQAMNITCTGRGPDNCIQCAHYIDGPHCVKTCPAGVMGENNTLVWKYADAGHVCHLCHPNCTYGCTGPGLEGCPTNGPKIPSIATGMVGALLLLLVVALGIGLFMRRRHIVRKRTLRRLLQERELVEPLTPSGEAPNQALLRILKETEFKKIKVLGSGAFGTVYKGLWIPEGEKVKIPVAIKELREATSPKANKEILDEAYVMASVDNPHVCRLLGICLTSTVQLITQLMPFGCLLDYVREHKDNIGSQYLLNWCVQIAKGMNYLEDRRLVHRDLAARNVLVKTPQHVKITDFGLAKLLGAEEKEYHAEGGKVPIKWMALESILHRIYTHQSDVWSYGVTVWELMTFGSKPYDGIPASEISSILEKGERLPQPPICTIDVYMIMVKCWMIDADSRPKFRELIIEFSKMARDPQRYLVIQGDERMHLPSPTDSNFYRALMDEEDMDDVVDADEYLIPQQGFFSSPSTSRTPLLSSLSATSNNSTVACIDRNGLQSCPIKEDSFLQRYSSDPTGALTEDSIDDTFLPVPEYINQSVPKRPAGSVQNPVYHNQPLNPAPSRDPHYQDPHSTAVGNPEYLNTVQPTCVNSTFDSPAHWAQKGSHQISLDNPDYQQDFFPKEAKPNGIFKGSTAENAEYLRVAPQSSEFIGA

inhibition	Compound
60.7%	CN(C(=O)CNC(=O)/C=C/c1cccc(Cl)c1)C1CCS(=O)(=O)C1 (stereo not drawn)
46.8%	CN(C(=O)CNC(=O)/C=C/c1cccc(Cl)c1)C1CCS(=O)(=O)CC1
28.2% (inactive)	CN(C(=O)COC(=O)/C=C/c1cccc([N+](=O)[O-])c1)C1CCS(=O)(=O)C1 (stereo not drawn)
